# Source: ChEMBL document CHEMBL5579840, “Optimization of diastereomeric dihydropyridines as antimalarials” (Eur J Med Chem, 2024)
# Experiments:
# [1] = test system: Plasmodium falciparum; experiment: Antimalarial activity against chloroquine-sensitive Plasmodium falciparum 3D7 infected in erythroctes incubated for 72 hrs by SYBR green 1 based spectrofluorometer; format: functional, organism-based, Erythrocyte
# [2] = Cytotoxicity against mouse J774.A1 cells; format: toxicity, cell-based
# [3] = test system: Plasmodium falciparum; experiment: Antimalarial activity against chloroquine-resistant Plasmodium falciparum K1 infected in erythroctes incubated for 72 hrs by SYBR green 1 based spectrofluorometer; format: functional, organism-based, Erythrocyte
# [4] = Plasmodium falciparum, 3D7, Erythrocyte, 72 h
# [5] = Plasmodium falciparum, K1, Erythrocyte, 72 h
Compound,EC50 ([1]; erythrocyte),EC50 [2],EC50 ([3]; erythrocyte),"EC50 [1, 4]","EC50 [3, 5]"
CCOC(=O)C1=C(C)NC2=C(C(=O)CC(c3ccc(OC)c(OC)c3)C2)C1c1ccccc1Cl (stereo in doubt; 2A),0.165 µM,> 20 µM,0.141 µM,–,–
CCCC1=C(C(=O)OCC)C(c2ccc(Cl)cc2C)C2=C(CC(c3ccc(OC)c(OC)c3)OC2=O)N1 (stereo in doubt; 45A),0.148 µM,> 20 µM,0.102 µM,–,–
CCOC(=O)C1=C(C)NC2=C(C(=O)OC(c3ccc(Cl)c(OC)c3)C2)C1c1ccc(Cl)cc1C (stereo in doubt; 42A),> 13 µM,> 20 µM,> 13 µM,–,–
CCOC(=O)C1=C(C)NC2=C(C(=O)OC(c3ccccc3C)C2)C1c1ccccc1Cl (centres undefined),–,> 20 µM,–,> 5 µM,> 5 µM
CCOC(=O)C1=C(C)NC2=C(C(=O)OC(c3ccc(OC)c(OC)c3)C2)C1c1ccc(Cl)cc1C (stereo in doubt; 38A),> 4.7 µM,> 20 µM,0.992 µM,–,–
CCCC1=C(C(=O)OCC)C(c2ccc(Cl)cc2C)C2=C(CC(c3cc(OC)ccc3OC)CC2=O)N1 (stereo in doubt; 48A),0.542 µM,> 20 µM,0.228 µM,–,–
COCC1=C(C(=O)OC)C(c2ccc(Cl)cc2)C2=C(CC(c3cc(OC)c(OC)c(OC)c3)OC2=O)N1 (stereo in doubt; 56A),0.061 µM,> 20 µM,–,–,0.0624 µM
COc1ccc(C2CC3=C(C(=O)O2)C(c2ccccc2Cl)C(C(=O)OCc2ccccc2)=C(C)N3)cc1OC (stereo in doubt; 31A),–,> 20 µM,–,> 11.8 µM,> 11.8 µM
CCOC(=O)C1=C(C)NC2=C(C(=O)OC(c3ccc(OC)c(OC)c3)C2)C1c1ccc(Cl)cc1 (stereo in doubt; 5A),0.769 µM,> 20 µM,0.633 µM,–,–
COc1ccc(C2CC3=C(C(=O)O2)C(c2ccccc2Cl)C(C(=O)OC(C)(C)C)=C(C)N3)cc1OC (stereo in doubt; 30A),–,> 20 µM,> 13 µM,> 13 µM,–
CCOC(=O)C1=C(C)NC2=C(C(=O)OC(c3ccc(Cl)cc3)C2)C1c1ccccc1Cl (stereo in doubt; 20A),0.51 µM,> 20 µM,0.56 µM,–,–
CCOC(=O)C1=C(C(=O)OCC)C(c2ccccc2Cl)C2=C(CC(c3ccc(OC)c(OC)c3)OC2=O)N1 (stereo in doubt; 33A),0.0381 µM,> 20 µM,0.0136 µM,–,–
CCCC1=C(C(=O)OCC)C(c2ccccc2Cl)C2=C(CC(c3ccc(OC)c(OC)c3)CC2=O)N1 (stereo in doubt; 43A),0.0286 µM,> 20 µM,0.0265 µM,–,–
CCOC(=O)C1=C(C)NC2=C(C(=O)OC(c3ccc(OC)c(OC)c3)C2)C1c1ccc([N+](=O)[O-])cc1 (stereo in doubt; 13A),> 10 µM,> 20 µM,> 10 µM,–,–
CCOC(=O)C1=C(C)NC2=C(C(=O)OC(c3ccc(OC)c(OC)c3)C2)C1c1ccccc1C (stereo in doubt; 6A),1.27 µM,> 20 µM,2.05 µM,–,–
COC(=O)C1=C(C)NC2=C(C(=O)OC(c3ccc(OC)c(OC)c3)C2)C1c1ccccc1Cl (stereo in doubt; 28A),> 8.5 µM,> 20 µM,> 8.5 µM,–,–
CCOC(=O)C1=C(C)NC2=C(C(=O)OC(c3ccccc3OC)C2)C1c1ccccc1Cl (stereo in doubt; 24A),–,> 20 µM,–,> 6 µM,> 6 µM
CCOC(=O)C1=C(C)NC2=C(C(=O)OC(c3ccc(OC)c(OC)c3)C2)C1c1ccccc1 (stereo in doubt; 1A),> 7.4 µM,> 20 µM,> 7.4 µM,–,–
CCOC(=O)C1=C(C)NC2=C(C(=O)CC(c3ccc(OC)c(OC)c3)C2)C1c1ccc(Cl)cc1C (stereo in doubt; 37A),0.094 µM,> 20 µM,0.0826 µM,–,–
CCOC(=O)C1=C(C)NC2=C(C(=O)OC(c3cccc(Cl)c3)C2)C1c1ccccc1Cl (centres undefined),–,> 20 µM,–,> 6 µM,> 6 µM
CCOC(=O)C1=C(C)NC2=C(C(=O)OC(c3ccc(OC)c(OC)c3)C2)C1c1ccccc1Cl (stereo in doubt; 3A),2.33 µM,> 20 µM,1.39 µM,–,–
COc1ccc(C2CC(=O)C3=C(C2)NC(C)=C(C(=O)O)C3c2ccccc2Cl)cc1OC (stereo in doubt; 27A),–,> 20 µM,–,> 15 µM,–
CCCC1=C(C(=O)OCC)C(c2ccc(Cl)cc2C)C2=C(CC(c3ccc(Cl)c(OC)c3)CC2=O)N1 (stereo in doubt; 46A),0.319 µM,> 20 µM,0.244 µM,–,–
CCOC(=O)C1=C(C)NC2=C(C(=O)CC(c3ccc(Cl)c(OC)c3)C2)C1c1ccc(Cl)cc1C (stereo in doubt; 41A),0.55 µM,> 20 µM,0.385 µM,–,–
CCOC(=O)C1=C(C)NC2=C(C(=O)OC(c3cccc(OC)c3)C2)C1c1ccccc1Cl (stereo in doubt; 25A),2.13 µM,> 20 µM,> 7 µM,–,–
CCOC(=O)C1=C(C)NC2=C(C(=O)OC(c3ccc(OC)c(OC)c3)C2)C1c1cccc2ccccc12 (centres undefined),–,> 20 µM,–,> 10 µM,> 10 µM

Compound,EC50 ([1]; erythrocyte),EC50 [2],EC50 ([3]; erythrocyte),"EC50 [1, 4]","EC50 [3, 5]"
CCOC(=O)C1=C(C)NC2=C(C(=O)OC(c3ccc(Cl)c(OC)c3)C2)C1c1ccccc1Cl (stereo in doubt; 40A),> 7.7 µM,> 20 µM,2.87 µM,–,–
CCOC(=O)C1=C(C)NC2=C(C(=O)OC(c3ccc(OC)c(OC)c3)C2)C1c1ccc(-c2ccccc2)cc1 (centres undefined),–,> 20 µM,–,> 10 µM,> 10 µM
CCOC(=O)C1=C(C)NC2=C(C(=O)OC(c3ccc(OC)c(OC)c3)C2)C1c1ccc(OC)cc1 (centres undefined),–,> 20 µM,–,> 10 µM,> 10 µM
CCOC(=O)C1=C(C)NC2=C(C(=O)OC(c3ccc(OC)c(OC)c3)C2)C1c1ccc(C)cc1 (stereo in doubt; 8A),> 10 µM,> 20 µM,> 10 µM,–,–
CCCC1=C(C(=O)OCC)C(c2ccc(Cl)cc2C)C2=C(CC(c3ccc(OC)c(OC)c3)CC2=O)N1 (stereo in doubt; 44A),0.0983 µM,> 20 µM,0.0829 µM,–,–
CCOC(=O)C1=C(C)NC2=C(C(=O)OC(c3ccc(OC)c(OC)c3)C2)C1c1cccc(C)c1 (centres undefined),–,> 20 µM,–,> 10 µM,> 10 µM
COCC1=C(C(=O)OC)C(c2ccc(Cl)cc2C)C2=C(CC(c3ccc(OC)c(OC)c3)CC2=O)N1 (stereo in doubt; 51A),0.0396 µM,> 20 µM,0.0216 µM,–,–
CCOC(=O)C1=C(C)NC2=C(C(=O)OC(c3cc(OC)c(OC)c(OC)c3)C2)C1c1ccccc1Cl (stereo in doubt; 54A),0.322 µM,> 20 µM,0.315 µM,–,–
CCOC(=O)C1=C(c2ccccc2)NC2=C(C(=O)CC(c3ccc(OC)c(OC)c3)C2)C1c1ccccc1Cl (stereo in doubt; 35A),3.72 µM,> 20 µM,> 10.9 µM,–,–
CCOC(=O)C1=C(C)NC2=C(C(=O)OC(c3ccc(OC)c(OC)c3)C2)C1c1cccc(OC)c1 (centres undefined),–,> 20 µM,–,> 10 µM,> 10 µM
CCOC(=O)C1=C(C)NC2=C(C(=O)OC(c3ccccc3Cl)C2)C1c1ccccc1Cl (stereo in doubt; 18A),–,> 20 µM,–,> 5.5 µM,> 5.5 µM
CCOC(=O)C1=C(C)NC2=C(C(=O)OC(c3ccc(OC)cc3)C2)C1c1ccccc1Cl (stereo in doubt; 26A),> 7 µM,> 20 µM,> 7 µM,–,–
CCOC(=O)C1=C(C)NC2=C(C(=O)OC(c3ccc(OC)c(OC)c3)C2)C1c1ccccc1OC (stereo in doubt; 9A),> 5.6 µM,> 20 µM,–,–,> 5.6 µM
CCCC1=C(C(=O)OCC)C(c2ccccc2Cl)C2=C(CC(c3ccc(OC)c(OC)c3)OC2=O)N1 (stereo in doubt; 32A),0.811 µM,> 20 µM,0.418 µM,–,–
CCOC(=O)C1=C(C)NC2=C(C(=O)CC(c3ccc(Cl)c(OC)c3)C2)C1c1ccccc1Cl (stereo in doubt; 39A),0.63 µM,> 20 µM,0.397 µM,–,–
CCOC(=O)C1=C(C)NC2=C(C(=O)OC(c3ccc(C)cc3)C2)C1c1ccccc1Cl (stereo in doubt; 23A),–,> 20 µM,> 5 µM,> 5 µM,–
CCOC(=O)C1=C(C)NC2=C(C(=O)OC(c3ccc(OC)c(OC)c3)C2)C1c1ccc2ccccc2c1 (centres undefined),–,> 20 µM,–,> 10 µM,> 10 µM
CCOC(=O)C1=C(C)NC2=C(C(=O)OC(c3ccc(OC)c(OC)c3)C2)C1c1ccc(Br)cc1 (stereo in doubt; 12A),1.45 µM,> 20 µM,3.37 µM,–,–
CCCOC(=O)C1=C(C)NC2=C(C(=O)OC(c3ccc(OC)c(OC)c3)C2)C1c1ccccc1Cl (stereo in doubt; 29A),2.36 µM,> 20 µM,> 7 µM,–,–
CCOC(=O)C1=C(C)NC2=C(C(=O)CC(c3ccc(OC)c(OC)c3)C2)C1c1ccc(Cl)cc1 (stereo in doubt; 36A),0.264 µM,> 20 µM,0.221 µM,–,–
CCOC(=O)C1=C(C)NC2=C(C(=O)OC(c3cccc(C)c3)C2)C1c1ccccc1Cl (stereo in doubt; 22A),–,> 20 µM,–,> 5 µM,> 5 µM
CCOC(=O)C1=C(C)NC2=C(C(=O)OC(c3ccccc3)C2)C1c1ccccc1Cl (stereo in doubt; 17A),–,> 20 µM,–,> 9.5 µM,–
CCOC(=O)C1=C(C)NC2=C(C(=O)OC(c3ccc(OC)c(OC)c3)C2)C1c1ccccc1C (stereo in doubt; 6B),0.0385 µM,–,0.0597 µM,–,–
CCOC(=O)C1=C(C)NC2=C(C(=O)OC(c3ccc(OC)c(OC)c3)C2)C1c1ccccc1 (stereo in doubt; 1B),0.083 µM,–,0.08 µM,–,–
COc1cc([C@@H]2c3cc4c(cc3[C@H](O)[C@H]3COC(=O)[C@H]23)OCO4)cc(OC)c1OC [PODOFILOX],–,0.25 µM,–,–,–
COCC1=C(C(=O)OC)C(c2ccc(Cl)cc2C)C2=C(CC(c3ccc(OC)c(OC)c3)CC2=O)N1 (mixture of isomers),0.0024 µM,–,0.0046 µM,–,–
